In the supplement of paper PMC10307832:

Key:
Experiment in all cases: relative viability (nuclei count vs DMSO), 5 days (fraction); higher = more cells survive
[1] = compound: C1=CC2=NC=CN=C2C=C1/C=C/3\C(=O)NC(=O)S3 + O=C(CCCCCCC(=O)Nc1ccccc1)NO [Vorinostat] (partner 1 µM)
Summary of the method: (§1)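 Lung cancer cell lines were pin-tool dosed in 1536-well plates on the day after seeding, with either a lone drug or a fixed anchor-drug dose plus five library-drug doses (not always all listed) in √10 steps. Nuclei were counted on 4× images after 5 days. Relative viability is the ratio of treated-well to vehicle-well nuclei counts, with each value a median of duplicate plates.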

[2] = compound: CCN1CCN(c2ccc(Nc3cc(N(C)C(=O)Nc4c(Cl)c(OC)cc(OC)c4Cl)ncn3)cc2)CC1 [BGJ398] + CC1(C)CCC(c2ccc(Cl)cc2)=C(CN2CCN(c3ccc(C(=O)NS(=O)(=O)c4ccc(N[C@H](CCN5CCOCC5)CSc5ccccc5)c(S(=O)(=O)C(F)(F)F)c4)cc3)CC2)C1 [Navitoclax] (partner 0.5 µM)
Summary of the method: as §1

[3] = compound: CCN1CCN(c2ccc(Nc3cc(N(C)C(=O)Nc4c(Cl)c(OC)cc(OC)c4Cl)ncn3)cc2)CC1 [BGJ398] + CC(=O)Nc1cccc(-n2c(=O)n(C3CC3)c(=O)c3c(Nc4ccc(I)cc4F)n(C)c(=O)c(C)c32)c1 [Trametinib] (partner 0.02 µM)
Summary of the method: as §1

[4] = compound: C1=CC2=NC=CN=C2C=C1/C=C/3\C(=O)NC(=O)S3 + COc1cc2c(Oc3ccc(NC(=O)C4(C(=O)Nc5ccc(F)cc5)CC4)cc3F)ccnc2cc1OCCCN1CCOCC1 [Foretinib] (partner 0.25 µM)
Summary of the method: as §1

Cell Line	relative viability ([1]; first compound 0.02 µM)	relative viability ([1]; first compound 0.06325 µM)	relative viability ([1]; first compound 0.2 µM)	relative viability ([1]; first compound 0.6325 µM)	relative viability ([1]; first compound 2 µM)	relative viability ([2]; first compound 0.01 µM)	relative viability ([2]; first compound 0.03162 µM)	relative viability ([2]; first compound 0.1 µM)	relative viability ([2]; first compound 0.3162 µM)	relative viability ([2]; first compound 1 µM)	relative viability ([3]; first compound 0.01 µM)	relative viability ([3]; first compound 0.03162 µM)	relative viability ([3]; first compound 0.1 µM)	relative viability ([3]; first compound 0.3162 µM)	relative viability ([3]; first compound 1 µM)	relative viability ([4]; first compound 0.02 µM)	relative viability ([4]; first compound 0.06325 µM)	relative viability ([4]; first compound 0.2 µM)	relative viability ([4]; first compound 0.6325 µM)	relative viability ([4]; first compound 2 µM)
NCI-H2347	0.53	0.565	0.718	0.49	0.591	0.671	0.939	0.828	0.835	0.777	0.32	0.239	0.275	0.309	0.259	0.843	0.77	0.948	0.86	0.634
NCI-H2405	1.04	1.14	1.11	1.08	0.526	0.806	0.926	0.969	0.941	0.872	0.495	0.654	0.622	0.463	0.59	1.06	1.12	1.13	1.03	0.838
NCI-H3122	0.926	0.981	1.03	1.07	1.05	0.989	1.01	1.06	0.984	1.05	0.204	0.223	0.245	0.19	0.264	0.963	0.985	0.917	0.867	0.96
PC-3 [JPC-3]	0.939	0.874	0.92	0.766	0.654	0.756	–	0.773	0.637	0.777	0.75	–	0.787	–	0.782	0.997	1.14	1.02	1	1.06
PC-14	0.799	0.713	1.01	0.689	0.571	1.01	1.05	1.06	1.04	0.998	0.762	0.821	0.735	–	0.903	0.934	1.07	0.961	1.01	0.893
